Source: patent US20220104493A1, “HERBICIDAL COMPOUNDS” (SYNGENTA CROP PROTECTION AG, priority 2019, published 2022)
Like-named read-outs stand apart in the source and are kept apart here.

Columns and labels:
Test in all cases: Post-emergence efficacy, Method A
Assay type in all cases: in vivo
Lolium perenne (LOLPE) = conditions: read-out: Control of weed species after post-emergence application, LOLPE
[1] = system: Chenopodium album (CHEAL); conditions: read-out: Control of weed species after post-emergence application, CHEAL
[2] = system: Echinochloa crus-galli (ECHCG); conditions: read-out: Control of weed species after post-emergence application, ECHCG
[3] = system: Amaranthus palmeri (AMAPA); conditions: read-out: Control of weed species after post-emergence application, AMAPA
[4] = system: Ipomoea hederacea (IPOHE); conditions: read-out: Control of weed species after post-emergence application, IPOHE
Setaria faberi (SETFA) = conditions: read-out: Control of weed species after post-emergence application, SETFA
Eleusine indica (ELEIN) = conditions: read-out: Control of weed species after post-emergence application, ELEIN
[5] = system: Digitaria sanguinalis (DIGSA); conditions: read-out: Control of weed species after post-emergence application, DIGSA
[6] = 500 g/Ha, 100=total damage to plant, 0=no damage, evaluated after 7 and 14 days

| SMILES | pest or weed control at 500 g/ha (Lolium perenne (LOLPE); [6]) [%] | pest or weed control at 500 g/ha [1, 6] [%] | pest or weed control at 500 g/ha [2, 6] [%] | pest or weed control at 500 g/ha [3, 6] [%] | pest or weed control at 500 g/ha [4, 6] [%] | pest or weed control at 500 g/ha (Setaria faberi (SETFA); [6]) [%] | pest or weed control at 500 g/ha (Eleusine indica (ELEIN); [6]) [%] | pest or weed control at 500 g/ha [5, 6] [%] | pest or weed control at 500 g/ha (Lolium perenne (LOLPE)) [%] | pest or weed control at 500 g/ha [1] [%] | pest or weed control at 500 g/ha [2] [%] | pest or weed control at 500 g/ha [3] [%] | pest or weed control at 500 g/ha [4] [%] | pest or weed control at 500 g/ha (Setaria faberi (SETFA)) [%] | pest or weed control at 500 g/ha (Eleusine indica (ELEIN)) [%] | pest or weed control at 500 g/ha [5] [%] |
| --- | --- | --- | --- | --- | --- | --- | --- | --- | --- | --- | --- | --- | --- | --- | --- | --- |
| O=C(O)C[n+]1ccc(-c2nc(C(F)(F)F)ns2)cc1 [Compound A1, 2-[4-[3-(trifluoromethyl)-1,2,4-thiadiazol-5-yl]pyridin-1-ium-1-yl]acetic acid 2,2,2-trifluoroacetate] | 70 | 90 | 60 | 100 | 40 | 90 | 90 | 70 | – | – | – | – | – | – | – | – |
| Cc1nsc(-c2cc[n+](CS(=O)(=O)[O-])cc2)n1 [Compound A2, [4-(3-methyl-1,2,4-thiadiazol-5-yl)pyridin-1-ium-1-yl]methanesulfonate] | 60 | 90 | 60 | 100 | 70 | 70 | 80 | 90 | – | – | – | – | – | – | – | – |
| CP(=O)([O-])C[n+]1ccc(-c2ncns2)cc1 [Compound A10, methyl-[[4-(1,2,4-thiadiazol-5-yl)pyridin-1-ium-1-yl]methyl]phosphinate] | – | – | – | – | – | – | – | – | 40 | 90 | 90 | 90 | 50 | 100 | 90 | 90 |
| CC([n+]1ccc(-c2ncns2)cc1)S(=O)(=O)[O-] (stereo not drawn) [Compound A11] | 60 | 90 | 100 | 100 | 80 | 60 | 90 | 80 | – | – | – | – | – | – | – | – |
| O=S(=O)([O-])CCC[n+]1ccc(-c2noc(C(F)(F)F)n2)cc1 [Compound A15, 3-[4-[5-(trifluoromethyl)-1,2,4-oxadiazol-3-yl]pyridin-1-ium-1-yl]propane-1-sulfonate] | 0 | 0 | 30 | 0 | 20 | 30 | 10 | 30 | – | – | – | – | – | – | – | – |
| O=S(=O)([O-])CC[n+]1ccc(-c2nc(C(F)(F)F)cs2)cc1 [Compound A21] | 20 | 0 | 90 | 70 | 10 | 70 | 80 | 70 | – | – | – | – | – | – | – | – |
| O=S(=O)([O-])C[n+]1ccc(-c2ncco2)cc1 [Compound A23] | 0 | 20 | 0 | 0 | 10 | 0 | 0 | 20 | – | – | – | – | – | – | – | – |
| CS(=O)(=O)[N-]C(=O)C[n+]1ccc(-c2ncns2)cc1 [Compound A29] | 40 | 30 | 90 | 90 | 90 | 50 | 50 | 90 | – | – | – | – | – | – | – | – |
| COP(=O)([O-])C[n+]1ccc(-c2ncns2)cc1 [Compound A30, methoxy-[[4-(1,2,4-thiadiazol-5-yl)pyridin-1-ium-1-yl]methyl]phosphinate] | – | – | – | – | – | – | – | – | 30 | 70 | 90 | 90 | 50 | 90 | 90 | 90 |
| CCOP(=O)([O-])C[n+]1ccc(-c2ncns2)cc1 [Compound A31] | – | – | – | – | – | – | – | – | 20 | 70 | 70 | 70 | 30 | 40 | 80 | 80 |
| O=P([O-])(O)C[n+]1ccc(-c2ncns2)cc1 [Compound A32, hydroxy-[[4-(1,2,4-thiadiazol-5-yl)pyridin-1-ium-1-yl]methyl]phosphinate] | 10 | 20 | 70 | 60 | 0 | 20 | 40 | 50 | – | – | – | – | – | – | – | – |
| O=S(=O)([O-])CC[n+]1ccc(-c2nc(C(F)(F)F)ns2)cc1 [Compound A38] | 70 | 60 | 60 | 90 | 60 | 40 | 80 | 50 | – | – | – | – | – | – | – | – |
| O=S(=O)([O-])CC[n+]1ccc(-c2ncco2)cc1 [Compound A39] | 0 | 30 | 0 | 40 | 20 | 0 | 0 | 0 | – | – | – | – | – | – | – | – |
| O=C(O)C[n+]1ccc(-c2ccno2)cc1 [Compound A40] | 0 | 0 | 0 | 10 | 20 | 0 | 0 | 0 | – | – | – | – | – | – | – | – |
| O=S(=O)([O-])CC[n+]1ccc(-c2ccno2)cc1 [Compound A41] | 0 | 0 | 10 | 10 | 0 | 10 | 0 | 10 | – | – | – | – | – | – | – | – |
| O=S(=O)([O-])C[n+]1ccc(-c2ccsn2)cc1 [Compound A42] | 0 | 20 | 10 | 90 | 10 | 10 | 0 | 10 | – | – | – | – | – | – | – | – |
| O=S(=O)([O-])C[n+]1ccc(-c2nc(C(F)(F)F)co2)cc1 [Compound A43] | 10 | 40 | 60 | 40 | 30 | 20 | 60 | 30 | – | – | – | – | – | – | – | – |
| O=C(O)C[n+]1ccc(-c2nc(C(F)(F)F)co2)cc1 [Compound A44] | 10 | 10 | 10 | 30 | 0 | 0 | 10 | 20 | – | – | – | – | – | – | – | – |
